For one compound, EC50 results are on record in BindingDB's records for doi:10.1021/acsmedchemlett.9b00286 (Bristol Myers Squibb, 2019).

What is called EC50 is the midpoint of the concentration-response curve.

A short description of this assay: Inhibition of NS5A in HCV genotype 1b assessed as decrease in viral replication.

For `COC(=O)N[C@H](C(=O)N1CCC[C@H]1c1nc(-c2ccc(-c3ccc(-c4c[nH]c([C@@H]5CCCN5C(=O)[C@@H](NC(=O)OC)C(C)C)n4)cc3)cc2)c[nH]1)C(C)C` [BMS-790052], the EC50 was determined as 4 pM.
